Measured values reported in patent publication US20090203711A1, “Inhibitors of P38 Map Kinase” (CHROMA THERAPEUTICS LTD., priority 2006, published 2009).
Structures can show the parent of a compound that is named as a salt.

What was measured:
human whole blood = experiment: LPS-stimulation of human whole blood, TNF-α release by ELISA; assay type: cell-based; details: LPS 100 ng/ml, 6 hrs, inhibitor added 2 hrs before, read-out: Inhibitor activity versus human whole blood TNFα release
Experimental: LPS-Stimulation of Human Whole Blood
Whole blood was taken by venous puncture using heparinised vacutainers (Becton Dickinson) and diluted in an equal volume of RPMI 1640 tissue culture media (Sigma). 100 μl was plated in V-bottomed 96 well tissue culture treated plates. 2 hrs after the addition of the inhibitor in 100 μl of RPMI 1640 media, the blood was stimulated with LPS (E. coli strain 005:B5, Sigma) at a final concentration of 100 ng/ml and incubated at 37° C. in 5% CO2 for 6 hrs. TNF-α levels were measured from cell-free supernatants by sandwich ELISA (R&D Systems #QTA00B)

THP-1 cells = experiment: LPS-stimulation of THP-1 cells, TNF-α release by ELISA; assay type: cell-based; details: Homo sapiens, LPS 1 μg/ml, 6 hrs, inhibitor added 2 hrs before, read-out: Inhibitor activity versus THP-1 TNFα release
Experimental: LPS-Stimulation of THP-1 Cells
THP-1 cells were plated in 100 μl at a density of 4×10^4 cells/well in V-bottomed 96 well tissue culture treated plates and incubated at 37° C. in 5% CO2 for 16 hrs. 2 hrs after the addition of the inhibitor in 100 μl of tissue culture media, the cells were stimulated with LPS (E coli strain 005:B5, Sigma) at a final concentration of 1 μg/ml and incubated at 37° C. in 5% CO2 for 6 hrs. TNF-α levels were measured from cell-free supernatants by sandwich ELISA (R&D Systems #QTA00B)

SMILES | IC50 (human whole blood) [nM] | IC50 (THP-1 cells) [nM]
Nc1c(C(=O)c2ccc(F)cc2F)ccc(=O)n1-c1c(F)cc(OCC[C@@H](N)C(=O)OC2CCCC2)cc1F [Example 4, Cyclopentyl (R)-2-Amino-4-{4-[6-amino-5-(2,4-difluorobenzoyl)-2-oxo-2H-pyridin-1-yl]-3,5-difluorophenoxy}butanoate Trifluoroacetate] | 100 to 1000 | 
CC(C)(C)OC(=O)[C@@H](N)CCCOc1cc(F)c(-n2c(N)c(C(=O)c3ccc(F)cc3F)ccc2=O)c(F)c1 [Example 6, Tert-Butyl (S)-2-Amino-5-{4-[6-amino-5-(2,4-difluorobenzoyl)-2-oxo-2H-Pyridin-1-yl]-3,5-difluorophenoxy}pentanoate] | 100 to 1000 | 
Nc1c(C(=O)c2ccc(F)cc2)ccc(=O)n1-c1c(F)cc(OCCC[C@H](N)C(=O)OC2CCCC2)cc1F [Example 7] | 100 to 1000 | 
CC(C)(C)OC(=O)N[C@@H](CCCOc1cc(F)c(-n2c(N)c(C(=O)c3ccc(F)cc3F)ccc2=O)c(F)c1)C(=O)OC1CCCC1 [Intermediate 1, Cyclopentyl (S)-5-{4-[6-Amino-5-(2,4-difluorobenzoyl)-2-oxo-2H-pyridin-1-yl]-3,5-difluorophenoxy}-2-tert-butoxycarbonylamino Pentanoate] |  | 100 to 1000
CC(C)(C)OC(=O)N[C@@H](CCOc1cc(F)c(-n2c(N)c(C(=O)c3ccc(F)cc3F)ccc2=O)c(F)c1)C(=O)OC1CCCC1 [Intermediate 2, Cyclopentyl (S)-4-{4-[6-Amino-5-(2,4-difluorobenzoyl)-2-oxo-2H-pyridin-1-yl]-3,5-difluorophenoxy}-2-tert-butoxycarbonylaminobutyrate] |  | 100 to 1000
